PMC3920255 (Toxins, 2013)
In brackets after ≈: the same amount, converted by molar mass. Numbered stars: 1 amine (or outer) side, 2 acyl side, 3 side chain; on linkers, the order of the positions; unused ones are H or OH. Bridge positions count the residues as written; N and C are the ends. Square brackets hold non-standard residues; d marks the D form. Peptide text beside a SMILES is read from it. Adda = CO[C@@H](Cc1ccccc1)[C@@H](C)/C=C(C)/C=C/[C@H](N[*:1])[C@H](C)C(=O)[*:2]; dAsp(3S-Me) = C[C@H](C(=O)[*:3])[C@@H](N[*:1])C(=O)[*:2]; d(γGlu) = O=C(O)[C@@H](CCC(=O)[*:2])N[*:1]; NMeDha = C=C(NC)C(=O)O; Dha = C=C(N)C(=O)O

System: primary cultured rat hepatocytes
Settings: not given

In order of falling “IC50 (concentration showing 50% cell viability)” value:
1. C=C1NC(=O)CC[C@H](C(=O)O)NC(=O)[C@@H](C)[C@H](/C=C/C(C)=C/[C@H](C)[C@H](Cc2ccccc2)OC)NC(=O)[C@H](CCCNC(=N)N)NC(=O)[C@@H](C)[C@H](C(=O)O)NC(=O)[C@H](CCCNC(=N)N)NC(=O)[C@@H](C)NC1=O [No.14, [Dha^7] MC-RR] (R[Adda][d(γGlu)][Dha][dA]R[dAsp(3S-Me)]-OH; lactam N-7)  5.33 µg/mL (≈ 5.2 µM)
2. C=C1NC(=O)CC[C@H](C(=O)O)NC(=O)[C@@H](C)[C@H](/C=C/C(C)=C/[C@H](C)[C@H](Cc2ccccc2)OC)NC(=O)[C@H](CCCNC(=N)N)NC(=O)C[C@H](C(=O)O)NC(=O)[C@H](CCCNC(=N)N)NC(=O)[C@@H](C)NC1=O [No.15, [D-Asp^3, Dha^7] MC-RR]  4.11 µg/mL (≈ 4.07 µM)
3. C=C1C(=O)N[C@H](C)C(=O)N[C@@H](Cc2ccc(O)cc2)C(=O)N[C@@H](C(=O)O)[C@H](C)C(=O)N[C@@H](CCCNC(=N)N)C(=O)N[C@@H](/C=C/C(C)=C/[C@H](C)[C@H](Cc2ccccc2)OC)[C@H](C)C(=O)N[C@@H](C(=O)O)CCC(=O)N1C [No.7, MC-YR] (R[Adda][d(γGlu)][NMeDha][dA]Y[dAsp(3S-Me)]-OH; lactam N-7)  1.48 µg/mL (≈ 1.42 µM)
4. C=C1C(=O)N[C@H](C)C(=O)N[C@@H](CC(C)C)C(=O)N[C@@H](C(=O)O)[C@H](C)C(=O)N[C@@H](CCCNC(=N)N)C(=O)N[C@@H](/C=C/C(C)=C/[C@H](C)[C@H](Cc2ccccc2)OC)[C@H](C)C(=O)N[C@@H](C(=O)O)CCC(=O)N1C [No.1, MC-LR, reference compound] (R[Adda][d(γGlu)][NMeDha][dA]L[dAsp(3S-Me)]-OH; lactam N-7)  0.800 µg/mL (≈ 0.804 µM)
5. C=C1NC(=O)CC[C@H](C(=O)O)NC(=O)[C@@H](C)[C@H](/C=C/C(C)=C/[C@H](C)[C@H](Cc2ccccc2)OC)NC(=O)[C@H](CCCNC(=N)N)NC(=O)[C@@H](C)[C@H](C(=O)O)NC(=O)[C@H](Cc2ccc(O)cc2)NC(=O)[C@@H](C)NC1=O [No.8, [Dha^7] MC-YR] (R[Adda][d(γGlu)][Dha][dA]Y[dAsp(3S-Me)]-OH; lactam N-7)  0.418 µg/mL (≈ 0.405 µM)
6. C=C1NC(=O)CC[C@H](C(=O)O)NC(=O)[C@@H](C)[C@H](/C=C/C(C)=C/[C@H](C)[C@H](Cc2ccccc2)OC)NC(=O)[C@H](CCCNC(=N)N)NC(=O)C[C@H](C(=O)O)NC(=O)[C@H](CC(C)C)NC(=O)[C@@H](C)NC1=O [No.4, [D-Asp^3, Dha^7] MC-LR]  0.217 µg/mL (≈ 0.224 µM)
7. C=C1NC(=O)CC[C@H](C(=O)O)NC(=O)[C@@H](C)[C@H](/C=C/C(C)=C/[C@H](C)[C@H](Cc2ccccc2)OC)NC(=O)[C@H](CCCNC(=N)N)NC(=O)[C@@H](C)[C@H](C(=O)O)NC(=O)[C@H](CC(C)C)NC(=O)[C@@H](C)NC1=O [No.2, [Dha^7] MC-LR] (R[Adda][d(γGlu)][Dha][dA]L[dAsp(3S-Me)]-OH; lactam N-7)  0.217 µg/mL (≈ 0.221 µM)
8. C=C1C(=O)N[C@H](C)C(=O)N[C@@H](CC(C)C)C(=O)N[C@@H](C(=O)O)CC(=O)N[C@@H](CCCNC(=N)N)C(=O)N[C@@H](/C=C/C(C)=C/[C@H](C)[C@H](Cc2ccccc2)OC)[C@H](C)C(=O)N[C@@H](C(=O)O)CCC(=O)N1C [No.3, [D-Asp^3] MC-LR]  0.217 µg/mL (≈ 0.221 µM)
9. C/C=C1/NC(=O)CC[C@H](C(=O)O)NC(=O)[C@@H](C)[C@H](/C=C/C(C)=C/[C@H](C)[C@H](Cc2ccccc2)OC)NC(=O)[C@H](CCCNC(=N)N)NC(=O)C[C@H](C(=O)O)NC(=O)[C@H](CC(C)C)NC(=O)[C@@H](C)NC1=O [No.5, [D-Asp^3, E-Dhb^7] MC-LR]  0.133 µg/mL (≈ 0.136 µM)
10. C/C=C1\NC(=O)CC[C@H](C(=O)O)NC(=O)[C@@H](C)[C@H](/C=C/C(C)=C/[C@H](C)[C@H](Cc2ccccc2)OC)NC(=O)[C@H](CCCNC(=N)N)NC(=O)C[C@H](C(=O)O)NC(=O)[C@H](CC(C)C)NC(=O)[C@@H](C)NC1=O [No.6, [D-Asp^3, Z-Dhb^7] MC-LR]  0.053 µg/mL (≈ 0.054 µM)

With `C=C1C(=O)N[C@H](C)C(=O)N[C@@H](CCCNC(=N)N)C(=O)N[C@@H](C(=O)O)[C@H](C)C(=O)N[C@@H](CCCNC(=N)N)C(=O)N[C@@H](/C=C/C(C)=C/[C@H](C)[C@H](Cc2ccccc2)OC)[C@H](C)C(=O)N[C@@H](C(=O)O)CCC(=O)N1C` [No.12, MC-RR] (R[Adda][d(γGlu)][NMeDha][dA]R[dAsp(3S-Me)]-OH; lactam N-7) the “IC50 (concentration showing 50% cell viability)” value was greater than 10 µg/mL.

Same assay, conditions: 72 h

In order of falling “IC50 (concentration showing 50% cell viability)” value:
1. C=C1C(=O)N[C@H](C)C(=O)N[C@@H](CCc2ccc(O)cc2)C(=O)N[C@@H](C(=O)O)CC(=O)N[C@@H](CCCNC(=N)N)C(=O)N[C@@H](/C=C/C(C)=C/[C@H](C)[C@H](Cc2ccccc2)OC)[C@H](C)C(=O)N[C@@H](C(=O)O)CCC(=O)N1C [No.9, [D-Asp^3] MC-HtyR]  0.347 µg/mL (≈ 0.332 µM)
2. C/C=C1/NC(=O)CC[C@H](C(=O)O)NC(=O)[C@@H](C)[C@H](/C=C/C(C)=C/[C@H](C)[C@H](Cc2ccccc2)OC)NC(=O)[C@H](CCCNC(=N)N)NC(=O)C[C@H](C(=O)O)NC(=O)[C@H](CCc2ccc(O)cc2)NC(=O)[C@@H](C)NC1=O [No.10, [D-Asp^3, E-Dhb^7] MC-HtyR]  0.327 µg/mL (≈ 0.313 µM)
3. C/C=C1\NC(=O)CC[C@H](C(=O)O)NC(=O)[C@@H](C)[C@H](/C=C/C(C)=C/[C@H](C)[C@H](Cc2ccccc2)OC)NC(=O)[C@H](CCCNC(=N)N)NC(=O)C[C@H](C(=O)O)NC(=O)[C@H](CCc2ccc(O)cc2)NC(=O)[C@@H](C)NC1=O [No.11, [D-Asp^3, Z-Dhb^7] MC-HtyR]  0.120 µg/mL (≈ 0.115 µM)

System: primary rat hepatocytes
Settings: cited from earlier work

In the case of `C=C1C(=O)N[C@H](C)C(=O)N[C@@H](CC(C)C)C(=O)N[C@@H](C(=O)O)[C@H](C)C(=O)N[C@@H](CCCNC(=N)N)C(=O)N[C@@H](/C=C/C(C)=C/[C@H](C)[C@H](Cc2ccccc2)OC)[C@H](C)C(=O)N[C@@H](C(=O)O)CCC(=O)N1C` [No.1, MC-LR, reference compound] (R[Adda][d(γGlu)][NMeDha][dA]L[dAsp(3S-Me)]-OH; lactam N-7), the “IC50 of MC-LR to primary rat hepatocytes, earlier study” value is listed as 0.048 µg/mL.
